Columns and labels:
rGpdA (GpdA) = molecular target: T1, rGpdA (GpdA) (Aspergillus nidulans, UniProt P20445); experiment: residual GAPDH activity after preincubation; biotin-switch assay; type: biochemical; details: covalent (S-nitrosation of thiols); 0–1 mM, 1 h, 25°C, pH 7.5; activity measured with NAD+
T1 construct: recombinant from cDNA, vector pET-21a, expressed in E. coli BL21 (DE3), HisTrap purified

rGpdC (GpdC) = molecular target: T2, rGpdC (GpdC) (Aspergillus nidulans, UniProt Q5BA47); experiment: as above; type: biochemical; details: covalent (S-nitrosation of thiols); 0–1 mM, 1 h, 25°C, pH 7.5; activity measured with NADP+
T2 construct: gene ANIA_02583; recombinant from synthetic E. coli codon-optimized gene, vector pET-21a (Nde I/Hind III), expressed in E. coli BL21 (DE3), HisTrap purified
T2 sequence (Q5BA47 1-354): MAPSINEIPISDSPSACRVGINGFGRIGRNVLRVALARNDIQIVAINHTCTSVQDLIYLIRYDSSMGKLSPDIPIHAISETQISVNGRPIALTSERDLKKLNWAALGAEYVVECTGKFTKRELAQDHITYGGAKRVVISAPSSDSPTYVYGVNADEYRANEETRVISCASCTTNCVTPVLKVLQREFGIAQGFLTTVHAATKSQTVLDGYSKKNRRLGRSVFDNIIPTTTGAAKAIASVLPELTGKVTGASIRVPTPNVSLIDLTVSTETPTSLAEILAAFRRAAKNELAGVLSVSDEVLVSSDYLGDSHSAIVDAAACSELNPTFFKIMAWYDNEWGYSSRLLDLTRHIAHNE

T1 sequence (P20445 whole entry): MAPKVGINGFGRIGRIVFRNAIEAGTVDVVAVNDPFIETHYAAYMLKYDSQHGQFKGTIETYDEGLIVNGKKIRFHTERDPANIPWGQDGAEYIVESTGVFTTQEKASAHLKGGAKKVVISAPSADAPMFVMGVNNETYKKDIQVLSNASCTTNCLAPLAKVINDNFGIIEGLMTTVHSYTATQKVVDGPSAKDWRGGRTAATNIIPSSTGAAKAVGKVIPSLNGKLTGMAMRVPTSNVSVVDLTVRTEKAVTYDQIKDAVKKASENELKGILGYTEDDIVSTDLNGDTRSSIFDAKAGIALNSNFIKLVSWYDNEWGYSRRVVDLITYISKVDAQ

N[C@@H](CCC(=O)N[C@@H](CSN=O)C(=O)NCC(=O)O)C(=O)O [GSNO]
residual GAPDH activity after preincubation; biotin-switch assay (rGpdA (GpdA)): GSNO modified the thiol residues of rGpdA and rGpdC to S-nitrosothiol and impaired enzyme activity | residual GAPDH activity after preincubation; biotin-switch assay (rGpdC (GpdC)): GSNO modified the thiol residues of rGpdA and rGpdC to S-nitrosothiol and impaired enzyme activity
